In patent US20100068692A1, “ANTIFREEZE GLYCOPROTEIN ANALOGUES AND USES THEREOF” (UNIVERSITY OF OTTAWA, priority 2008, published 2010):
Entries after “also recorded” stand apart in the source; their conditions may differ.

How the values were obtained:
[1] = isentropic, value x10^4, aqueous solution at 298 K; cited from earlier work
[2] = RI assay, splat cooling with domain recognition software (Experiment 2)
Description: Sample analysis for RI activity was performed using the “splat cooling” method as described previously (Knight, C. A.; Hallet, J.; DeVries, A. L. Cryobiology, 1998, 25, 55). In this method, the analyte is dissolved in phosphate buffered saline (PBS) solution and a 10 μL drop of this solution is dropped from a micropipette through a two metre high plastic tube (10 cm in diameter) onto a block of polished aluminum pre-cooled to approximately −80° C. The droplet freezes instantly on the polished aluminum block and is approximately 1 cm in diameter and 20 μm thick. This wafer is then carefully removed from the surface of the block and transferred to a cryostage held at −6.4° C. for annealing. After a period of 30 minutes, the wafer was photographed between crossed polarizing filters using a digital camera (Nikon CoolPix 5000) fitted to the microscope. A total of three images are taken from each wafer. During flash freezing, ice crystals spontaneously nucleate from the super-cooled solution. These initial crystals are relatively homogenous in size and quite small. During the annealing cycle recrystallization occurs, resulting in a dramatic increase in ice crystal size. A quantitative measure of the difference in recrystallization inhibition of two compounds X and Y is the difference in the dynamics of the ice crystal size distribution. […] This processing employed of the Microsoft Windows Graphical User Interface to allow a user to visually demarcate and store the vertices of ice domains in a digital micrograph. […] To eliminate the need to fully process each micrograph, an algorithm was developed to randomly display a number of x/y locations. The algorithm made use of a built-in pseudo random number generator (rand(x)) and was written so that no two locations were closer than 1/10th the field of view of the micrograph. The formula for the area of a polygon that is not self-intersecting and contains no holes is then given by Eq.2,
where N is the number of vertices, and x0, y0 to xN−1, yN−1 are the vertices circumventing the polygon in a clockwise direction. The point x0, y0 is assumed to be equivalent to the point xN, yN. The software was written in C using Microsoft Visual Studio 6.0 on a Pentium class personal computer running Microsoft Windows 2000 or XP. All data was plotted and analyzed using Microsoft Excel.

[3] = Thermal hysteresis (TH), microcapilliary method
[4] = Nanolitre osmometry of carbohydrate solutions (Experiment 2); details: 10 mg/mL solutions in double-distilled water
Description: Nanoliter osmometry was performed using a nanoliter osmometer (Clifton Technical Physics, Hartford, N.Y.) as described by Chakrabartty and Hew (Chakrabartty, A.; Hew, C. L. Eur. J. Biochem. 1991, 202, 1057-1063). All measurements were made in doubly distilled water. Ice crystal morphology was observed through a Leitz compound microscope equipped with an Olympus 20× (infinity corrected) objective, Leitz Periplan 32× photo eyepiece and a Hitachi KP-M2U CCD camera connected to a Toshiba MV13K1 TV/VCR system. Still images were captured directly using a Nikon CoolPix digital camera.
It has been proposed that the optimal distance between hydroxyl groups is 4.2-4.5 Angstroms (Baruch, E.; Belostotskii, A. M.; Mastai, Y. J. Mol. Struct. 2008, 874, 170).

[5] = Recrystallization inhibition (RI) assay, mean largest grain size (Experiment 1); details: carbohydrate concentration corrected to 0.021 mmole/L (FIG. 3)
Description: All measurements were performed in triplicate. The Y-axis depicts the mean largest grain size (MLGS in mm^2) of ice crystals measured directly from photographs of the sample, as described previously (Raymond, J. A. D., A. L., Proc. Natl. Acad. Sci. USA 1977, 74, 2589).
All samples were compared to a solution of phosphate buffered saline (PBS) which was used as a negative control and a solution of AFGP 8 isolated from Gagus ogac (generously provided by AquaBounty Farms). Each solution was tested at three different concentrations in order to rule out any non-specific RI effects. The Y-axis in FIG. 5 represents mean largest grain size (MLGS) where small bars are representative of potent recrystallization-inhibition activity.
The Y-axis in FIG. 7 represents the mean largest grain size (MLGS) which is an average ice crystal surface area for each sample.

[6] = Nanoliter osmometer: thermal hysteresis and dynamic ice shaping (Experiment 1); details: without antifreeze the crystal is perfectly round, 'Identical images' refers to that, 13: 0.0033 mmole/L in doubly distilled water
Description: FIG. 4 (A) depicts a single ice crystal in the absence of biological antifreeze. Notice that the crystal is perfectly round and has no facets or edges.
AFGP analogues 18a-c were assayed for antifreeze protein-specific activity using nanoliter osmometry and a recrystallization-inhibition assay.

In the case of `OCC1O[C@@H](O)C(O)[C@@H](O)[C@H]1O` (stereo partly shown) [talose], the “Molar Compressibility (K2°(s)x10^4)” value [1] is listed as −11.9 cm^3 mol^−1 bar^−1.
For `OC[C@H]1O[C@@](CO)(O[C@H]2O[C@H](CO)[C@@H](O)[C@H](O)[C@H]2O)[C@@H](O)[C@@H]1O` [sucrose], the “RI activity (in words)” value ([2]; 0.022 M in PBS solution) was “little effect upon recrystallization”.
In the case of `OCC(O)CO` [glycerol], the “temperature below the melting point at which rapid crystal growth occurred / solution freezes” value [3] is reported as −0.01 °C.
For `OCC1O[C@H](O[C@@H]2C(CO)O[C@@H](O)C(O)C2O)C(O)C(O)[C@@H]1O` (stereo partly shown), the “Molar Compressibility (K2°(s)x10^4)” value [1] is given as −23.7 cm^3 mol^−1 bar^−1.
In the case of `OCC1O[C@H](OCC2O[C@@H](O)C(O)C(O)[C@@H]2O)C(O)C(O)[C@H]1O` (stereo partly shown) [melibiose], the “Melting Point” value [4] is given as −0.17 °C, the “RI activity (in words)” value ([2]; 0.022 M in PBS solution) is given as “is the most potent” and the “Molar Compressibility (K2°(s)x10^4)” value [1] is given as −31.2 cm^3 mol^−1 bar^−1.
In the case of `C[S+](C)[O-]` [DMSO, dimethylsulfoxide], the “RI activity (in words)” value ([2]; 0.1% (v/v) solution in PBS) is reported as “failed to inhibit recrystallization” and the “RI activity (in words)” value ([2]; 4% (v/v) solution in PBS) is reported as “produced a significant RI effect”.
In the case of “(L-lysine-glycine-glycine)-6-glycine [peptide control]”, the “RI activity relative to PBS (in words)” value [5] is reported as “did not inhibit the growth of ice”.
With `OCC1O[C@@H](O)C(O)[C@@H](O)[C@H]1O` (stereo partly drawn) [D-galactose] the “Melting Point” value [4] was −0.069 °C, the “RI activity (in words)” value ([2]; 0.022 M in PBS solution) was “inhibit recrystallization as well as a 3% DMSO solution” and the “RI activity (in words)” value ([2]; 0.022 M in PBS solution, listed as galactose) was “as efficient at inhibiting recrystallization as a 3% (v/v) DMSO solution; also recorded: possesses the most RI activity”. The “RI activity (in words)” value ([2]; 0.044 M solution in PBS) was “RI activity similar to that of a 0.022 M solution” and the “RI activity (in words)” value ([2]; 0.22 M solution in PBS) was “effective inhibitor of recrystallization”.
For `N[C@@H](CCCCNC(=O)C[C@H]1OC(CO)[C@H](O)[C@H](O)C1O)C(=O)NCC(=O)NCC(=O)O` (stereo partly shown) [Compound 10], the “RI activity relative to PBS (in words)” value [5] was “do not show any RI activity”.
In the case of `OCC1O[C@H](O[C@H]2OC(CO)[C@@H](O)C(O)C2O)C(O)C(O)[C@@H]1O` (stereo partly drawn) [D-trehalose], the “Melting Point” value [4] is reported as −0.015 °C.
In the case of `OCC1O[C@@H](O)C(O)[C@@H](O)[C@@H]1O` (stereo partly drawn) [D-glucose], the “Melting Point” value [4] is listed as −0.055 °C and the “Molar Compressibility (K2°(s)x10^4)” value [1] is listed as −17.6 cm^3 mol^−1 bar^−1.
With `[Cl-].[Na+]` [salt, sodium chloride] the “single ice crystal morphology” value [6] was “Identical images” and the “temperature below the melting point at which rapid crystal growth occurred / solution freezes” value [3] was −0.01 °C.
For `OCC1O[C@H](O[C@H]2OC(CO)[C@@H](O)C(O)C2O)C(O)C(O)[C@@H]1O` (stereo partly shown) [drawing 28], the “Molar Compressibility (K2°(s)x10^4)” value [1] is given as −30.2 cm^3 mol^−1 bar^−1.
